Measurements published in patent EP4635974A1, “COSMETIC COMPOSITION FOR SKIN IMPROVEMENT” (LG Household & Health Care Ltd., priority 2022, dated 2024).
Where a SMILES comes first, the peptide text is derived from it. Where no end group is shown, it is not given here. The star is where a group is joined. Palmitoyl = CCCCCCCCCCCCCCCC(=O)*

What was measured:
[1] = target: T1, Elastase derived from human leukocytes (Homo sapiens, UniProt P08246); test: Inhibition of elastase activity (synthetic substrate, absorbance at 405 nm); assay type: biochemical; conditions: for Inhibition of elastase activity (%): 100 µg/mL
T1 construct: Elastase derived from human leukocytes was used; from tissue; host or cells: human leukocytes
T1 sequence (P08246 30-267): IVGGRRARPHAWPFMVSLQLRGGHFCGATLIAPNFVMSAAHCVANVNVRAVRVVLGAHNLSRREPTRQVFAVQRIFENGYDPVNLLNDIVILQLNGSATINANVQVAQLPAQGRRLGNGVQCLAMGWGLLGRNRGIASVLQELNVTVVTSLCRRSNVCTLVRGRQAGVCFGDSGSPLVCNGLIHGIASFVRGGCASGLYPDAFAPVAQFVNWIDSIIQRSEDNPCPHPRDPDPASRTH
Protocol: (§1) In order to investigate the effect of peptide sequence variation, the activity of […] was tested as in Test Example 1 after sequence variation. Elastase derived from human leukocytes was used, and the synthetic substrate MeOSuc-Ala-Ala-Pro-Val-pNA was used as the substrate of elastase. A 100 mM Tris (pH 7.5) solution was used as a buffer solution. The elastase was diluted finally to 0.2 mU using the buffer solution. In addition, the synthetic substrate of elastase was prepared into a 100 mM solution using DMSO, and then diluted to a final concentration of 0.5 mM using a buffer solution. As a positive control group, quercetin known to inhibit elastase was used at a concentration of 10 ppm. The candidates of elastase inhibition were tested at final concentrations of 10 and 20 ppm. Reaction was conducted in a 96-well plate at room temperature for 20 minutes. The inhibition of the enzyme activity was determined by measuring absorbance at 405 nm using a spectrophotometer with 1-minute intervals, and calculating the slope of the absorbance versus time.
(§2) The peptide sequences of SEQ ID NOS 14 to 16 were treated at 100 µg/mL, and the peptide sequence RKSLFVD was used as a control peptide sequence. The inhibition of collagenase activity (%) and the inhibition of elastase activity (%) were calculated from the relative enzyme activity versus the control group, and the result is given in Table 4.
(§3) In order to investigate the effect of variation of the N-terminal or C-terminal of the peptide sequence, the activity of collagenase and elastase was tested after sequence variation as in Test Example 1.

[2] = tested on: Collagenase derived from the mouse pancreas; test: Inhibition of collagenase activity (synthetic substrate, absorbance at 345 nm); assay type: biochemical; conditions: 100 µg/mL
Protocol: Collagenase derived from the mouse pancreas was used, and the synthetic substrate N-(3-[2-furyl]acryloyl)-Leu-Gly-Pro-Ala was used as the substrate of collagenase. A buffer solution in which 50 mM tricine, 10 mM CaCl2·H2O and 400 mM NaCl were dissolved (pH 7.5) was used. The synthetic substrate was dissolved in the buffer solution to a concentration of 10 mM and finally diluted to 75 µM. The collagenase was dissolved to a concentration of 1 unit/mL using cold triply distilled water at 4 °C and then finally diluted to 0.05 unit/mL using a buffer solution. The candidates of collagenase inhibition were tested at final concentrations of 25 and 50 ppm. As a positive control group, epigallocatechin gallate (EGCG) known to have the effect of inhibiting collagenase was used at a final concentration of 50 ppm. Reaction was conducted in a 96-well plate at room temperature for 10 minutes. The inhibition of the enzyme activity was determined by measuring absorbance at 345 nm using a spectrophotometer with 1-minute intervals, and calculating the maximum slope of the absorbance versus time.
as §1, §2, §3

[3] = tested on: acetylcholine release at the neuromuscular synapses; conditions: cited from earlier work
[4] = Table 4, relative enzyme activity versus the control group
[5] = Table 5, N-terminal or C-terminal variation

| Compound | inhibition at 100 µg/mL [1, 4] | Inhibition of collagenase activity (%) ([2]; Table 3) | other results |
| --- | --- | --- | --- |
| KGRSSCFVD [SEQ ID NO 2, KGRSSCFVD] | 70.9% |  |  |
| RSSCFVDC [SEQ ID NO 5] |  | 12.23% |  |
| CCCCCCCCCCCCCCCC(=O)N[C@@H](CCCCN)C(=O)NCC(=O)N[C@@H](CCCNC(=N)N)C(=O)N[C@@H](CO)C(=O)N[C@@H](CO)C(=O)N[C@@H](CS)C(=O)N[C@@H](Cc1ccccc1)C(=O)N[C@H](C(=O)N[C@@H](CC(=O)O)C(=O)N[C@@H](CS)C(=O)O)C(C)C (Palmitoyl-KGRSSCFVDC-OH) |  |  | inhibition at 100 µg/mL [1, 5]: 74.1% |
| KGSSCFVDC [SEQ ID NO 10] |  | 15.24% |  |
| SSCFVDC [SEQ ID NO 6] |  | 17.97% |  |
| CC(=O)N[C@@H](CCCCN)C(=O)NCC(=O)N[C@@H](CCCNC(=N)N)C(=O)N[C@@H](CO)C(=O)N[C@@H](CO)C(=O)N[C@@H](CS)C(=O)N[C@@H](Cc1ccccc1)C(=O)N[C@H](C(=O)N[C@@H](CC(=O)O)C(=O)N[C@@H](CS)C(=O)O)C(C)C (Ac-KGRSSCFVDC-OH) |  |  | inhibition at 100 µg/mL [1, 5]: 71% |
| Ac-Glu-Glu-Met-Gln-Arg-Arg-NH2 (Ac-EEMQRR-NH2) [Argireline] |  |  | times weaker than Botox [3]: 5000 times |
| CC(C)[C@H](NC(=O)[C@H](Cc1ccccc1)NC(=O)[C@H](CS)NC(=O)[C@H](CO)NC(=O)[C@H](CO)NC(=O)[C@H](CCCNC(=N)N)NC(=O)CNC(=O)[C@@H](N)CCCCN)C(=O)N[C@@H](CC(=O)O)C(=O)N[C@@H](CS)C(N)=O [C-amine-substituted peptide of SEQ ID] (H-KGRSSCFVDC-NH2) |  |  | inhibition at 100 µg/mL [1, 5]: 52.6% |
| CDVFCSSRGK [SEQ ID NO 14] |  |  | Inhibition of elastase activity (%) [1, 4]: 68.5%; Inhibition of collagenase activity (%) [2, 4]: 24.77% |
| RKSLFVD [Control peptide sequence, RKSLFVD, reference compound] | 5.2% |  | inhibition at 100 µg/mL [1, 5]: 1.3% |
| DVFCSSRGK [SEQ ID NO 15, DVFCSSRGK] | 65.5% |  |  |
| KGRSSCF [SEQ ID NO 3, KGRSSCF] | 57.8% |  |  |
| KGRSSCFDC [SEQ ID NO 11] |  | 11.82% |  |
| FCSSRGK [SEQ ID NO 16, FCSSRGK] | 51.5% |  |  |
| KGRSSCFVDC [SEQ ID NO 1] |  | 22.91% | Inhibition of elastase activity (%) [1, 4]: 72.1%; Inhibition of elastase activity (%) [1, 5]: 68.3%; Inhibition of collagenase activity (%) [2, 4]: 21.57%; Inhibition of collagenase activity (%) [2, 5]: 22.6% |
| KGRSSCFVC [SEQ ID NO 12] |  | 13.97% |  |
